What was measured:
CDK2 = biological target: T1, CDK2 (Homo sapiens, UniProt P24941); test: CDK protein degradation activity (Western blotting), CDK2; type: cell-based; conditions: MDA-MB-231 cells, 16 hours, Western blot
T1 construct: endogenous in cells; host or cells: MDA-MB-231
Summary of the method: (§1)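 MDA-MB-231 cells were treated with compound at final concentrations of 100 nM, 1 μM and 10 μM, or DMSO vehicle, for 16 h. Lysates were resolved by SDS-PAGE and immunoblotted for CDK2, CDK9 and tubulin, with band intensities quantified densitometrically.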

CDK9 = biological target: T2, CDK9 (Homo sapiens, UniProt P50750); test: CDK protein degradation activity (Western blotting), CDK9; type: cell-based; conditions: MDA-MB-231 cells, 16 hours, Western blot
T2 construct: endogenous in cells; host or cells: MDA-MB-231
T2 sequence (P50750 whole entry): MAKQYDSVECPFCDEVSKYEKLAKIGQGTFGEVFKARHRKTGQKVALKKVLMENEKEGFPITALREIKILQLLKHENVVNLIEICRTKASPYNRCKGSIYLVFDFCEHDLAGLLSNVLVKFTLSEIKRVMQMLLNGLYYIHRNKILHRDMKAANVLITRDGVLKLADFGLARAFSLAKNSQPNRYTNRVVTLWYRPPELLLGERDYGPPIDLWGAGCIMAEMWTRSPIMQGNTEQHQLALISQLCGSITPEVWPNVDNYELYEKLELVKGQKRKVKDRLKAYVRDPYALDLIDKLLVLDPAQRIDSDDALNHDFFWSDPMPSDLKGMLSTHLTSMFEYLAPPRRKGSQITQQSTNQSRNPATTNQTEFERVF
Summary of the method: as §1

SMILES | Enzyme degradation CDK2 (% remaining) @ 0.1 μM (CDK2) | Enzyme degradation CDK2 (% remaining) @ 1 μM (CDK2) | Enzyme degradation CDK2 (% remaining) @ 10 μM (CDK2) | Enzyme degradation CDK9 (% remaining) @ 0.1 μM (CDK9) | Enzyme degradation CDK9 (% remaining) @ 1 μM (CDK9) | Enzyme degradation CDK9 (% remaining) @ 10 μM (CDK9)
O=C1CC[C@H](n2nnc3ccc(N4CCC(CCN5CCN(c6ccc(Nc7ncnc8c7ncn8C7CC(NC(=O)Cc8ccccc8)C7)cc6)CC5)CC4)cc3c2=O)C(=O)N1 (stereo partly drawn) [Compound 324, N-((1s,3s)-3-(6-((4-(4-(2-(1-(3-(2,6-dioxopiperidin-3-yl)-4-oxo-3,4-dihydrobenzo[d][1,2,3]triazin-6-yl)piperidin-4-yl)ethyl)piperazin-1-yl)phenyl)amino)-9H-purin-9-yl)cyclobutyl)-2-phenylacetamide] | 70% | 80% | 10% | 0/0/0% | 0/0/0% | 0/0/0%
COc1ccc(C(=O)NC[C@H]2CC[C@H](CN3CCN(c4ccc(Nc5ncnc6c5ncn6[C@H]5C[C@@H](NC(=O)Cc6ccccc6)C5)cc4)CC3)CC2)cc1N1CCC(=O)NC1=O [Compound 198, 3-(2,4-dioxotetrahydropyrimidin-1(2H)-yl)-4-methoxy-N-(((1r,4r)-4-((4-(4-((9-((1s,3s)-3-(2-phenylacetamido)cyclobutyl)-9H-purin-6-yl)amino)phenyl)piperazin-1-yl)methyl)cyclohexyl)methyl)benzamide] | 0/0/0% | 0/0/0% | 0/0/0% | 50% | 30% | 10%
Cc1cccc(C(=O)N[C@H]2C[C@@H](n3cnc4c(NCc5cccc(OCC6CCN(C(=O)CNc7ccc8c(c7)C(=O)N(C7CCC(=O)NC7=O)C8=O)CC6)c5)ncnc43)C2)n1 (stereo partly drawn) [Compound 96, N-((1s,3s)-3-(6-((3-((1-((2-(2,6-dioxopiperidin-3-yl)-1,3-dioxoisoindolin-5-yl)glycyl)piperidin-4-yl)methoxy)benzyl)amino)-9H-purin-9-yl)cyclobutyl)-6-methylpicolinamide] | 60% | 40% | 50% | 10% | 0% | 0%
Cc1cccc(C(=O)N[C@H]2C[C@@H](n3cnc4c(NCc5ccc(OCCCN6CCN(C(=O)COc7ccc8c(c7)C(=O)N([C@H]7CCC(=O)NC7=O)C8=O)CC6)cc5)ncnc43)C2)n1 [Compound 112, N-((1s,3s)-3-(6-((4-(3-(4-(2-((2-(2,6-dioxopiperidin-3-yl)-1,3-dioxoisoindolin-5-yl)oxy)acetyl)piperazin-1-yl)propoxy)benzyl)amino)-9H-purin-9-yl)cyclobutyl)-6-methylpicolinamide] | 100% | 50% | 40% | 100% | 0% | 0%
O=C1CC[C@@H](c2cccc(OCC(=O)N3CC(N4CCC5(CC4)CC(N4CCN(c6ccc(Nc7ncnc8c7ncn8[C@H]7C[C@@H](NC(=O)Cc8ccccc8)C7)cc6)CC4)C5)C3)c2)C(=O)N1 [Compound 274, N-((1s,3s)-3-(6-((4-(4-(7-(1-(2-(3-(2,6-dioxopiperidin-3-yl)phenoxy)acetyl)azetidin-3-yl)-7-azaspiro[3.5]nonan-2-yl)piperazin-1-yl)phenyl)amino)-9H-purin-9-yl)cyclobutyl)-2-phenylacetamide] | 30% | 20% | 20% | 30/30/30% | 30/30/30% | 30/30/30%
O=C1CC[C@H](N2C(=O)c3ccc(N4CC(C(=O)N5CCC(CCCN6CCN(c7ccc(Nc8ncnc9c8ncn9C8CC(NC(=O)Cc9ccccc9)C8)cc7)CC6)CC5)C4)cc3C2=O)C(=O)N1 (stereo partly drawn) [Compound 372, N-((1s,3s)-3-(6-((4-(4-(3-(1-(1-(2-(2,6-dioxopiperidin-3-yl)-1,3-dioxoisoindolin-5-yl)azetidin-3-carbonyl)piperidin-4-yl)propyl)piperazin-1-yl)phenyl)amino)-9H-purin-9-yl)cyclobutyl)-2-phenylacetamide] | 90% | 50% | 50% | 0/0/0% | 0/0/0% | 0/0/0%
O=C1CCN(c2coc3cc(C(=O)N4CCC(CC(=O)N5CCN(c6ccc(Nc7ncnc8c7ncn8[C@H]7C[C@@H](NC(=O)Cc8ccccc8)C7)cc6)CC5)CC4)ccc23)C(=O)N1 [Compound 195, N-((1s,3s)-3-(6-((4-(4-(2-(1-(3-(2,4-dioxotetrahydropyrimidin-1(2H)-yl)benzofuran-6-carbonyl)piperidin-4-yl)acetyl)piperazin-1-yl)phenyl)amino)-9H-purin-9-yl)cyclobutyl)-2-phenylacetamide] | 80% | 50% | 50% | 20% | 10% | 10%
O=C1CC[C@H](N2C(=O)c3cccc(N4CCC(CN5CCC(CNc6ncnc7c6ncn7C6CC(NC(=O)c7c(Cl)cccc7Cl)C6)CC5)CC4)c3C2=O)C(=O)N1 (stereo partly drawn) [Compound 172, 2,6-dichloro-N-((1s,3s)-3-(6-(((1-((1-(2-(2,6-dioxopiperidin-3-yl)-1,3-dioxoisoindolin-4-yl)piperidin-4-yl)methyl)piperidin-4-yl)methyl)amino)-9H-purin-9-yl)cyclobutyl)benzamide] | 10% | 20% | 20% | 50% | 0% | 0%
O=C1CC[C@H](N2C(=O)c3cc(F)c(N4CCC(C(=O)N5CCN(CC6CCN(c7ccc(Nc8ncnc9c8ncn9[C@H]8C[C@@H](NC(=O)c9c(Cl)cccc9Cl)C8)cc7)CC6)CC5)CC4)cc3C2=O)C(=O)N1 [Compound 475, 2,6-dichloro-N-((1s,3s)-3-(6-((4-(4-((4-(1-(2-(2,6-dioxopiperidin-3-yl)-6-fluoro-1,3-dioxoisoindolin-5-yl)piperidin-4-carbonyl)piperazin-1-yl)methyl)piperidin-1-yl)phenyl)amino)-9H-purin-9-yl)cyclobutyl)benzamide] | 20/20/20% | 20/20/20% | 20/20/20% | 0/0/0% | 0/0/0% | 0/0/0%
Cc1cccc(C(=O)N[C@H]2C[C@@H](n3cnc4c(NC5CCN(CC6CCN(C(=O)CNc7ccc8c(c7)C(=O)N([C@H]7CCC(=O)NC7=O)C8=O)CC6)CC5)ncnc43)C2)n1 [Compound 25, N-((1s,3s)-3-(6-((1-((1-((2-(2,6-dioxopiperidin-3-yl)-1,3-dioxoisoindolin-5-yl)glycyl)piperidin-4-yl)methyl)piperidin-4-yl)amino)-9H-purin-9-yl)cyclobutyl)-6-methylpicolinamide] | 20% | 20% | 30% | 0/0/0% | 0/0/0% | 0/0/0%
O=C1CC[C@H](N2C(=O)c3ccc(N4CCC5(CC4)CC(N4CCN(c6ccc(Nc7ncnc8c7ncn8[C@H]7C[C@@H](NC(=O)Cc8ccccc8)C7)cc6)CC4)C5)cc3C2=O)C(=O)N1 [Compound 210, N-((1s,3s)-3-(6-((4-(4-(7-(2-(2,6-dioxopiperidin-3-yl)-1,3-dioxoisoindolin-5-yl)-7-azaspiro[3.5]nonan-2-yl)piperazin-1-yl)phenyl)amino)-9H-purin-9-yl)cyclobutyl)-2-phenylacetamide] | 30/30/30% | 30/30/30% | 30/30/30% | 10% | 0% | 0%
O=C1CC[C@H](N2C(=O)c3cc(F)c(N4CCC(CCCN5CCN(c6ccc(Nc7ncnc8c7ncn8[C@H]7C[C@@H](NC(=O)Cc8ccccc8)C7)cc6)CC5)CC4)cc3C2=O)C(=O)N1 [Compound 458, N-((1s,3s)-3-(6-((4-(4-(3-(1-(2-(2,6-dioxopiperidin-3-yl)-6-fluoro-1,3-dioxoisoindolin-5-yl)piperidin-4-yl)propyl)piperazin-1-yl)phenyl)amino)-9H-purin-9-yl)cyclobutyl)-2-phenylacetamide] | 50/50/50% | 50/50/50% | 50/50/50% | 10% | 10% | 20%
O=C1CC[C@@H](c2ccc(OCC(=O)N3CCN(CCCN4CCN(c5ccc(Nc6ncnc7c6ncn7C6CC(NC(=O)Cc7ccccc7)C6)cc5)CC4)CC3)cc2)C(=O)N1 (stereo partly drawn) [Compound 236, N-((1s,3s)-3-(6-((4-(4-(3-(4-(2-(4-(2,6-dioxopiperidin-3-yl)phenoxy)acetyl)piperazin-1-yl)propyl)piperazin-1-yl)phenyl)amino)-9H-purin-9-yl)cyclobutyl)-2-phenylacetamide] | 50/50/50% | 50/50/50% | 50/50/50% | 20% | 0% | 0%

— patent US20260125382A1, “COMPOUNDS FOR INHIBITING OR DEGRADING CDK2 AND/OR CDK9 AND MEDICINAL USE THEREOF” (KOREA RESEARCH INSTITUTE OF CHEMICAL TECHNOLOGY, priority 2022, published 2026)
